The record followed here is ChEMBL document CHEMBL1909545, “Synthesis, biological assay in vitro and molecular docking studies of new Schiff base derivatives as potential urease inhibitors” (Eur J Med Chem, 2011).

The source made the active and inactive calls. The rule behind the calls is not given here.

Urease, sequence (P07374 whole entry): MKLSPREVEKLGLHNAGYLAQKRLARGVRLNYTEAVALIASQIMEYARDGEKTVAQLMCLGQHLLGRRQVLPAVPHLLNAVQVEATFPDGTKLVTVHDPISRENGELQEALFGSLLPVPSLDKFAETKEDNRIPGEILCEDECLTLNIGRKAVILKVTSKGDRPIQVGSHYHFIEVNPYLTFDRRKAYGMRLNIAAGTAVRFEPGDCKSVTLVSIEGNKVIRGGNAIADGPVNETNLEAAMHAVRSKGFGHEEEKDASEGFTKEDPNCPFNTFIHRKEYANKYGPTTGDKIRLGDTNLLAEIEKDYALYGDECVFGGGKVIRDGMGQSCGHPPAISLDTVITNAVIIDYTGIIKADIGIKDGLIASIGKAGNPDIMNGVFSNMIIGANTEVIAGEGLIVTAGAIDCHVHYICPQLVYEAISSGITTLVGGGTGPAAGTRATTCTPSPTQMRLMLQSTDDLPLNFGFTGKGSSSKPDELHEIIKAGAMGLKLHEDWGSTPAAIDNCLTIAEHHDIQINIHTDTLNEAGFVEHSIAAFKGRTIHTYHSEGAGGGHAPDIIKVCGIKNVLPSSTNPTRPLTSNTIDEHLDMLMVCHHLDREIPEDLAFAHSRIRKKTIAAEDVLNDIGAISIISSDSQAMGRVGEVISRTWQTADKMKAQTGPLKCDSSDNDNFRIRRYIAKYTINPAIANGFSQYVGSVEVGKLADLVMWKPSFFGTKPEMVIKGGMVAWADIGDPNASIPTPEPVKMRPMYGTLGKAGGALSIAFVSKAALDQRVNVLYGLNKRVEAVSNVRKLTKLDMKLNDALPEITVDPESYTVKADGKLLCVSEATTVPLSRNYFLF

One assay deals with Urease (Canavalia ensiformis) (UniProt P07374). To be noted: 0.01 to 0.001 uM.
Urease (Canavalia ensiformis), sequence (P07374 whole entry, looked up): as the sequence (P07374 whole entry) above
Take `N/C(S)=N/N=C/c1cccc([N+](=O)[O-])c1`: the inhibition result is “Active”.

The next assay addresses Urease (Canavalia ensiformis, UniProt P07374). Description: Inhibition of jack bean urease assessed as ammonia production after 30 mins by indophenol method.
Details: not given
Usually IC50 stands for the point on the concentration scale where inhibition reaches its midpoint. Broadly, the Ki is the dissociation constant of the complex between target and ligand, obtained from inhibition or displacement. On to `N/C(S)=N/N=C/c1ccc([N+](=O)[O-])cc1`, for which the IC50 is 0.547 µM and the Ki was 0.497 µM.
With `NC(=S)N/N=C/c1ccc(O)cc1`, the concentration for half-maximal inhibition (IC50) came out at 0.682 µM and the Ki came to 0.391 µM.
In the same order, the values of `N/C(S)=N/N=C/c1cccc(Br)c1` are 0.767 µM and 0.67 µM.
In the same order, the values of `NC(=S)N/N=C/c1ccc(Cl)cc1` are 0.41 µM and 0.398 µM.
In the same order, the values of `CN(C)c1ccc(/C=N/NC(N)=S)cc1` are 0.127 µM and 0.122 µM.
Consider `COc1cccc(/C=N/NC(N)=S)c1`, for which the 50% inhibitory concentration (IC50) amounted to 0.177 µM and the Ki was found to be 0.127 µM.
For `COc1ccc(/C=N/NC(N)=S)cc1OCc1ccccc1` the same measures were 0.33 µM and 0.191 µM.
For `NC(=S)N/N=C/c1ccccc1Cl`, the IC50 was found to be 0.215 µM and the Ki was determined as 0.17 µM.
In the same order, the values of `NC(=S)N/N=C/c1cccc(Cl)c1` are 0.67 µM and 0.625 µM.
For `NC(=S)N/N=C/c1cccc(O)c1O` the same measures were 0.22 µM and 0.127 µM.
For `N/C(S)=N/N=C/c1cccc([N+](=O)[O-])c1`, the IC50 came out at 0.102 µM and the Ki came out at 0.09 µM.
With `COc1cc(/C=N/NC(N)=S)cc(OC)c1OC`, the concentration for half-maximal inhibition (IC50) came out at 0.989 µM and the Ki worked out at 0.91 µM.
`NC(N)=S` [THIOUREA]: the Ki came to 19.6 µM.
Take `NC(=S)N/N=C/C=C/c1ccccc1`: the IC50 is 0.457 µM and the Ki is 0.407 µM.
For `NC(=S)N/N=C/c1ccc(Br)cc1` the same measures were 0.707 µM and 0.77 µM.
For `COc1cc(/C=N/NC(N)=S)cc(OC)c1O` the same measures were 0.233 µM and 0.134 µM.
With `COc1ccc(/C=N/NC(N)=S)cc1`, the IC50 came to 0.887 µM and the Ki worked out at 0.807 µM.
In the same order, the values of `NC(=S)N/N=C/c1ccccc1OCc1ccccc1` are 0.263 µM and 0.152 µM.
In the same order, the values of `C/C=C/C=N/NC(N)=S` are 0.746 µM and 0.43 µM.
